# Assay results published in article PMC8632254 (Frontiers in Pharmacology, 2021).
# Columns and labels:
# [1] = tested on: SFTSV; assay: microbe, parasite or virus in culture; assay type: cell-based, Severe fever with thrombocytopenia syndrome virus; settings: for IC50: Severe fever with thrombocytopenia syndrome virus, HUVEC
# [2] = tested on: SFTSV; assay: microbe, parasite or virus in culture; assay type: cell-based; settings: Severe fever with thrombocytopenia syndrome virus, Vero
# [3] = in vitro; settings: African green monkey
# [4] = tested on: SFTSV; assay type: cell-based, Severe fever with thrombocytopenia syndrome virus
# [5] = in vitro; settings: human
# [6] = tested on: HUVEC cells; settings: human
# [7] = tested on: SARS-CoV-2; assay type: cell-based
# [8] = tested on: Rift Valley fever virus (RVFV); assay: microbe, parasite or virus in culture; assay type: cell-based; settings: HUVEC
# [9] = tested on: SFTSV; parameters: species or system C57BL/6 mice; settings: mouse, in vivo, ip, 4 mg/kg/day
# [10] = tested on: SFTSV; assay type: cell-based, Severe fever with thrombocytopenia syndrome virus; remark: listed apart in the source
# [11] = tested on: SFTSV; assay type: cell-based, Severe fever with thrombocytopenia syndrome virus; remark: listed apart in the source
# [12] = tested on: SFTSV; settings: mouse, in vivo, ip, 1 mg/kg/day
# [13] = tested on: Rift Valley fever virus (RVFV); assay type: cell-based
# [14] = tested on: SARS-CoV-2; assay: microbe, parasite or virus in culture; assay type: cell-based; settings: Severe acute respiratory syndrome coronavirus 2, Vero C1008
# [15] = tested on: SFTSV mini-genome; assay type: cell-based, Severe fever with thrombocytopenia syndrome virus
# [16] = tested on: SFTSV; assay type: cell-based, Severe fever with thrombocytopenia syndrome virus; remark: listed apart in the source
# [17] = tested on: SFTSV; assay type: cell-based, Severe fever with thrombocytopenia syndrome virus; remark: listed apart in the source
# [18] = tested on: SFTSV; assay type: cell-based, Severe fever with thrombocytopenia syndrome virus; remark: listed apart in the source
compound,measurement,setting,value
"O=C1OC[C@H]2OC(O)[C@H](O)[C@@H](O)[C@@H]2OC(=O)c2cc(O)c(O)c(O)c2-c2c(O)c(O)c3oc(=O)c4c(c(O)c(O)c5oc(=O)c2c3c54)-c2c1cc(O)c(O)c2O (mixture of isomers) [Punicalin, punicalin]",SI,[1],> 100
same,IC50,[1],2.5 µM
same,IC50,[2],3.8 µM
same,CC50,[3],> 125 µM
same,virucidal effect on SFTSV virions,[4],directly inactivated virions in a dose dependent manner
same,CC50,[5],> 250 µM
"CC(C)=CCCC(C)(O)C1CCC2(C)C1C(O)CC1C3(C)CCC(OC4OC(CO)C(O)C(O)C4OC4OC(CO)C(O)C(O)C4OC4OCC(O)C(O)C4O)C(C)(C)C3CCC12C (stereo not shown) [Notoginsenoside Ft1, notoginsenoside Ft1]",IC50,[1],11 µM
same,IC50,[2],3.5 µM
same,CC50,[3],> 250 µM
same,CC50,[5],~62.5 µM
"CC(=O)O[C@@H]1C[C@H](O)[C@@]23CO[C@@H](O)[C@]1(C)[C@@H]2C[C@@H](O)[C@]1(C)[C@@H]3C(=O)[C@H](OC(C)=O)[C@@]2(C)[C@H](c3ccoc3)C[C@H]3O[C@]321 [Toosendanin, toosendanin]",CC50,[6],> 450 µM
same,IC50,[1],0.052 µM
same,"time-of-addition result, SARS-CoV-2",[7],revealed inhibitory effect when added 1 h post infection
same,IC50,[8],0.13 µM
same,inhibition at 0.6 µM,[8],72.6%
same,inhibition at 1.8 µM,[8],82%
same,inhibition at 5.6 µM,[8],95.5%
same,inhibition at 16.7 µM,[8],93.6%
same,inhibition at 50 µM,[8],95.1%
same,antigen of SFTSV nucleoprotein in spleen sections,[9],reduced the antigen of SFTSV nucleoprotein in the spleen sections
same,viral load in the serum,[9],significantly lower than that of the mice in the vehicle control group
same,IC50,[2],1.2 µM
same,SFTSV binding (vRNA level of bound virions),[10],did not inhibit SFTSV binding
same,syncytium formation (viral fusion),[11],No significant difference of syncytium formation
same,megakaryocytes accumulation in spleens (H&E),[12],reduced the megakaryocytes accumulation
same,viral antigen in spleen sections (immunohistochemistry),[12],less viral protein positive cells was detected
same,weight loss,[12],did not lead to weight loss
same,"time-of-addition result, RVFV",[13],inhibited the entry step of RVFV
same,IC50,[14],0.24 µM
same,inhibition at 0.21 µM,[14],42%
same,inhibition at 0.62 µM,[14],84.6%
same,inhibition at 1.85 µM,[14],92.4%
same,inhibition at 5.6 µM,[14],99%
same,inhibition at 16.7 µM,[14],99.5%
same,inhibition at 50 µM,[14],99.9%
same,viral RNA replication and transcription (mini-genome),[15],did not affect the viral RNA replication and transcription
same,virucidal effect on SFTSV virions,[4],no virucidal effect
same,Number of particles,[16],20
same,amount of internalized viral particles (microscopy),[16],significantly reduced the amount of internalized viral particles
same,"accumulation of vRNA (internalization), concentration series",[17],dose dependent inhibition effect on accumulation of vRNA
same,relative intracellular vRNA (internalization),[17],significantly reduced
same,CC50,[5],> 250 µM
same,"vRNA and viral protein expression, time of addition",[18],decreased significantly when toosendanin was added prior to but not post SFTSV infection
